Where “and” joins values, the source holds several entries; their conditions need not be identical. Identical values can stand only once. Records with an inconclusive call do not appear.
Tested on: MX-1 breast xenograft, nude mice, tumor weight T/C
Assay: NCI In Vivo Anticancer Drug Screen. Data for tumor model Human Mammary Carcinoma MX-1 Xenograft (intrarenal inoculation) in NU/NU Swiss (nude) mice
Settings: endpoint: mean tumor weight change, higher = larger tumour
Method in brief: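 Read-out: treated (T) over vehicle control (C) ratio of survival or tumor size. Dosing in animals carrying the transplanted tumor.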

[1] = dose: 300.0 mg/kg/injection, schedule: Q04DX003 (sc), vehicle: saline with Tween-80
[2] = dose: 600.0 mg/kg/injection, schedule: Q04DX003 (sc), vehicle: saline with Tween-80
[3] = dose: 300.0 mg/kg/injection, schedule: Q04DX003 (sc), vehicle: Klucel (hydroxypropylcellulose) (HPC)
[4] = dose: 600.0 mg/kg/injection, schedule: Q04DX003 (sc), vehicle: Klucel (hydroxypropylcellulose) (HPC)
[5] = dose: 1200.0 mg/kg/injection, schedule: Q04DX003 (sc), vehicle: Klucel (hydroxypropylcellulose) (HPC)

COc1cccc2c1C(=O)c1c(O)c3c(c(O)c1C2=O)C[C@@](O)(/C(C)=N/NC(=O)c1ccccc1)C[C@@H]3OC1CC(N)C(O)C(C)O1 (some centres undefined)
T/C (dose: 18.75 mg/kg/injection, schedule: Q04DX003 (sc), vehicle: water): 73 % of control | T/C (dose: 37.5 mg/kg/injection, schedule: Q04DX003 (sc), vehicle: water): 25 % of control

CCOC(=O)c1[nH]c2cccc3c2c1CC(Br)C3=O (centres undefined)
T/C [1]: 86 % of control | T/C [2]: 100 % of control | T/C (dose: 1200.0 mg/kg/injection, schedule: Q04DX003 (sc), vehicle: saline with Tween-80): 73 % of control | T/C (dose: 2400.0 mg/kg/injection, schedule: Q04DX003 (sc), vehicle: saline with Tween-80): 94 % of control

O=C(O)C1CC(c2ccccc2)=NN1c1ccccc1 (centres undefined)
T/C (dose: 200.0 mg/kg/injection, schedule: Q04DX003 (sc), vehicle: water): 72 % of control | T/C (dose: 400.0 mg/kg/injection, schedule: Q04DX003 (sc), vehicle: water): 72 % of control

COc1ccc2[nH]c3ccc4cc[n+](CCN5CCC(C6CCN(CC[n+]7ccc8ccc9[nH]c%10ccc(OC)cc%10c9c8c7)CC6)CC5)cc4c3c2c1
T/C (dose: 200.0 mg/kg/injection, schedule: Q04DX003 (sc), vehicle: Klucel (hydroxypropylcellulose) (HPC)): 108 % of control | T/C (dose: 400.0 mg/kg/injection, schedule: Q04DX003 (sc), vehicle: Klucel (hydroxypropylcellulose) (HPC)): 80 % of control | T/C (dose: 800.0 mg/kg/injection, schedule: Q04DX003 (sc), vehicle: Klucel (hydroxypropylcellulose) (HPC)): 99 % of control | T/C (dose: 1600.0 mg/kg/injection, schedule: Q04DX003 (sc), vehicle: Klucel (hydroxypropylcellulose) (HPC)): 80 % of control

COC(=O)C(Cl)(Cl)N=Nc1c(Cl)cc(Cl)c(C)c1Cl
T/C [1]: 78 % of control | T/C [2]: 74 % of control

Oc1c(Cl)cc(C(c2cc(Cl)c(O)c(Cl)c2)C(c2cc(Cl)c(O)c(Cl)c2)c2cc(Cl)c(O)c(Cl)c2)cc1Cl
T/C [3]: 108 % of control | T/C [4]: 79 % of control | T/C [5]: 73 % of control | T/C (dose: 2400.0 mg/kg/injection, schedule: Q04DX003 (sc), vehicle: Klucel (hydroxypropylcellulose) (HPC)): 88 % of control

COC(=O)Nc1nc2ccc(SC)cc2c(=O)[nH]1
T/C (dose: 150.0 mg/kg/injection, schedule: Q04DX003 (sc), vehicle: Klucel (hydroxypropylcellulose) (HPC)): 83 % of control | T/C [3]: 116 % of control | T/C [4]: 92 % of control | T/C [5]: 86 % of control

OC(CCl)CN1CC[N+]2(CC1)CC[N+]1(CCN(CC(O)CCl)CC1)CC2 (centres undefined)
T/C (dose: 8.0 mg/kg/injection, schedule: Q01DX010 (sc), vehicle: water): 117 % of control | T/C (dose: 32.0 mg/kg/injection, schedule: Q01DX010 (ip), vehicle: water): 90 % of control | T/C (dose: 64.0 mg/kg/injection, schedule: Q01DX010 (ip), vehicle: water): 88 % of control | T/C (dose: 64.0 mg/kg/injection, schedule: Q01DX010 (sc), vehicle: water): 92 % of control and 94 % of control | T/C (dose: 106.66 mg/kg/injection, schedule: Q04DX003 (ip), vehicle: water): 30 % of control | T/C (dose: 106.66 mg/kg/injection, schedule: Q04DX003 (sc), vehicle: water): 45 % of control | T/C (dose: 128.0 mg/kg/injection, schedule: Q01DX010 (ip), vehicle: water): 21 % of control | T/C (dose: 213.33 mg/kg/injection, schedule: Q04DX003 (ip), vehicle: water): 52 % of control | T/C (dose: 213.33 mg/kg/injection, schedule: Q04DX003 (sc), vehicle: water): 59 % of control | T/C (dose: 256.0 mg/kg/injection, schedule: Q01DX010 (ip), vehicle: water): 27 % of control | T/C (dose: 426.65 mg/kg/injection, schedule: Q04DX003 (ip), vehicle: water): 26 % of control | T/C (dose: 426.65 mg/kg/injection, schedule: Q04DX003 (sc), vehicle: water): 49 % of control | T/C (dose: 512.0 mg/kg/injection, schedule: Q01DX010 (sc), vehicle: water): 25 % of control

COc1cc(C2c3cc4c(cc3C(O)C(CO)C2CO)OCO4)cc(OC)c1OC (centres undefined)
T/C (dose: 100.0 mg/kg/injection, schedule: Q04DX003 (sc), vehicle: saline with Tween-80): 109 % of control | T/C (dose: 200.0 mg/kg/injection, schedule: Q04DX003 (sc), vehicle: saline with Tween-80): 97 % of control | T/C (dose: 400.0 mg/kg/injection, schedule: Q04DX003 (sc), vehicle: saline with Tween-80): 106 % of control | T/C (dose: 800.0 mg/kg/injection, schedule: Q04DX003 (sc), vehicle: saline with Tween-80): 86 % of control

From PubChem BioAssay AID296 (DTP/NCI, 2004)
